Measured values reported in patent US20040018941A1, “Fused-benzene derivatives of thiouracil, herbicidal and desiccant compositions contaning them” (ISHIHARA SANGYO KAISHA, LTD., priority 2002, published 2004).

Tests used:
Assay type in all cases: in vivo
Conditions in all cases: rating 0-100 (0 no damage, 100 complete death), 14 days after application
[1] = test system: redroot pigweed (Amaranthus retroflexus, AMARE); experiment: Pre-emerge herbicidal activity, greenhouse screen, AMARE
Source text: (§1) A standard greenhouse herbicide activity screening system was used to evaluate the herbicidal efficacy and crop safety of these test compounds. Seven broadleaf weed species including redroot pigweed (Amaranthus retroflexus, AMARE), velvetleaf (Abutilon theophrasti, ABUTH), sicklepod (Cassia obtusifolia, CASOB), ivyleaf morningglory (Ipomoea hederacea, IPOHE), lambsquarters (Chenopodium album, CHEAL), common ragweed (Ambrosia artemisiifolia L., AMBEL), and cocklebur (Xanthium strumarium, XANST) were used as test species. Four grass weed species including green foxtail (Setaria viridis, SETVI), barnyardgrass (Echinochloa crus-galli, ECHCG), johnsongrass (Sorghum halepense, SORHA), and large crabgrass (Digitaria sanguinalis, DIGSA) were also used. In addition, three crop species, field corn (Zea mays L., var. Dekalb 527, CORN), soybean (Glycine max L., var. Pella 86, SOY), and upland rice (Oryza sp., var. Tebonnet, RICE) were included.
(§2) All plants were grown in 10 cm square plastic pots which were filled with a sandy loam soil mix. For pre-emerge tests, seeds were planted one day prior to application of the test compounds. For post-emerge tests, seeds were planted 8-21 days prior to the test to allow emergence and good foliage development prior to application of the test substances. At the time of the post-emerge application, plants of all species were usually at the 2-3 leaf stage of development.
(§3) All test compounds were dissolved in acetone and applied to the test units in a volume of 187 l/ha. Test materials were applied at rates ranging from 15 g ai/ha to 1000 g ai/ha using a track sprayer equipped with a TJ8001 E even flow flat fan spray nozzle. Plants were arranged on a shelf so that the top of the canopy (post-emerge) or top of the soil surface (pre-emerge) was 40-45 cm below the nozzle. Pressurized air was used to force the test solution through the nozzle as it was mechanically advanced over the top of all test plants/pots. This application simulates a typical commercial field herbicide application.
(§4) In the post-emerge test, a commercial non-ionic surfactant was also included (0.25% v/v) to enhance wetting of the leaf surfaces of target plants. Immediately after application, test units of the pre-emerge applications were watered at the soil surface to incorporate the test materials.
(§5) At 14 days after application of the test materials, phytotoxicity ratings were recorded. A rating scale of 0-100 was used as previously described in Research Methods in Weed Science, 2nd edition, B. Truelove, Ed., Southern Weed Science Society, Auburn University, Auburn, Ala., 1977. Briefly, “0” corresponds to no damage and “100” corresponds to complete death of all plants in the test unit. This scale was used both to determine efficacy against weed species and damage to crop species. Herbicide activity data for various compounds of this invention, which are shown by compound No. in Tables 1-7, are shown in Tables 8 and 9.

[2] = test system: velvetleaf (Abutilon theophrasti, ABUTH); experiment: Pre-emerge herbicidal activity, greenhouse screen, ABUTH
Source text: as §1, §2, §3, §4, §5

[3] = test system: sicklepod (Cassia obtusifolia, CASOB); experiment: Pre-emerge herbicidal activity, greenhouse screen, CASOB
Source text: as §1, §2, §3, §4, §5

[4] = test system: ivyleaf morningglory (Ipomoea hederacea, IPOHE); experiment: Pre-emerge herbicidal activity, greenhouse screen, IPOHE
Source text: as §1, §2, §3, §4, §5

[5] = test system: lambsquarters (Chenopodium album, CHEAL); experiment: Pre-emerge herbicidal activity, greenhouse screen, CHEAL
Source text: as §1, §2, §3, §4, §5

[6] = test system: common ragweed (Ambrosia artemisiifolia L., AMBEL); experiment: Pre-emerge herbicidal activity, greenhouse screen, AMBEL
Source text: as §1, §2, §3, §4, §5

[7] = test system: green foxtail (Setaria viridis, SETVI); experiment: Pre-emerge herbicidal activity, greenhouse screen, SETVI
Source text: as §1, §2, §3, §4, §5

[8] = test system: barnyardgrass (Echinochloa crus-galli, ECHCG); experiment: Pre-emerge herbicidal activity, greenhouse screen, ECHCG
Source text: as §1, §2, §3, §4, §5

[9] = test system: johnsongrass (Sorghum halepense, SORHA); experiment: Pre-emerge herbicidal activity, greenhouse screen, SORHA
Source text: as §1, §2, §3, §4, §5

[10] = test system: large crabgrass (Digitaria sanguinalis, DIGSA); experiment: Pre-emerge herbicidal activity, greenhouse screen, DIGSA
Source text: as §1, §2, §3, §4, §5

[11] = test system: field corn (Zea mays L., var. Dekalb 527, CORN); experiment: Pre-emerge crop damage, greenhouse screen, CORN
Source text: as §1, §2, §3, §4, §5

[12] = test system: soybean (Glycine max L., var. Pella 86, SOY); experiment: Pre-emerge crop damage, greenhouse screen, SOY
Source text: as §1, §2, §3, §4, §5

[13] = test system: upland rice (Oryza sp., var. Tebonnet, RICE); experiment: Pre-emerge crop damage, greenhouse screen, RICE
Source text: as §1, §2, §3, §4, §5

[14] = test system: redroot pigweed (Amaranthus retroflexus, AMARE); experiment: Post-emerge herbicidal activity, greenhouse screen, AMARE
Source text: as §1, §2, §3, §4, §5

[15] = test system: velvetleaf (Abutilon theophrasti, ABUTH); experiment: Post-emerge herbicidal activity, greenhouse screen, ABUTH
Source text: as §1, §2, §3, §4, §5

[16] = test system: sicklepod (Cassia obtusifolia, CASOB); experiment: Post-emerge herbicidal activity, greenhouse screen, CASOB
Source text: as §1, §2, §3, §4, §5

[17] = test system: ivyleaf morningglory (Ipomoea hederacea, IPOHE); experiment: Post-emerge herbicidal activity, greenhouse screen, IPOHE
Source text: as §1, §2, §3, §4, §5

[18] = test system: lambsquarters (Chenopodium album, CHEAL); experiment: Post-emerge herbicidal activity, greenhouse screen, CHEAL
Source text: as §1, §2, §3, §4, §5

[19] = test system: common ragweed (Ambrosia artemisiifolia L., AMBEL); experiment: Post-emerge herbicidal activity, greenhouse screen, AMBEL
Source text: as §1, §2, §3, §4, §5

[20] = test system: green foxtail (Setaria viridis, SETVI); experiment: Post-emerge herbicidal activity, greenhouse screen, SETVI
Source text: as §1, §2, §3, §4, §5

[21] = test system: barnyardgrass (Echinochloa crus-galli, ECHCG); experiment: Post-emerge herbicidal activity, greenhouse screen, ECHCG
Source text: as §1, §2, §3, §4, §5

[22] = test system: johnsongrass (Sorghum halepense, SORHA); experiment: Post-emerge herbicidal activity, greenhouse screen, SORHA
Source text: as §1, §2, §3, §4, §5

[23] = test system: large crabgrass (Digitaria sanguinalis, DIGSA); experiment: Post-emerge herbicidal activity, greenhouse screen, DIGSA
Source text: as §1, §2, §3, §4, §5

[24] = test system: field corn (Zea mays L., var. Dekalb 527, CORN); experiment: Post-emerge crop damage, greenhouse screen, CORN
Source text: as §1, §2, §3, §4, §5

[25] = test system: soybean (Glycine max L., var. Pella 86, SOY); experiment: Post-emerge crop damage, greenhouse screen, SOY
Source text: as §1, §2, §3, §4, §5

[26] = test system: upland rice (Oryza sp., var. Tebonnet, RICE); experiment: Post-emerge crop damage, greenhouse screen, RICE
Source text: as §1, §2, §3, §4, §5

Structure (SMILES): Cn1c(C(F)(F)F)cc(=O)n(-c2ccc(Cl)c3nc(C(C)(C)C)oc23)c1=S [Compound 1-4]
- Pre-emerge Herbicidal Activity AMARE ([1]; 63 g ai/ha): 100
- Pre-emerge Herbicidal Activity AMARE ([1]; 250 g ai/ha): 100
- Pre-emerge Herbicidal Activity ABUTH ([2]; 63 g ai/ha): 100
- Pre-emerge Herbicidal Activity ABUTH ([2]; 250 g ai/ha): 100
- Pre-emerge Herbicidal Activity CASOB ([3]; 63 g ai/ha): 70
- Pre-emerge Herbicidal Activity CASOB ([3]; 250 g ai/ha): 100
- Pre-emerge Herbicidal Activity IPOHE ([4]; 63 g ai/ha): 99
- Pre-emerge Herbicidal Activity IPOHE ([4]; 250 g ai/ha): 100
- Pre-emerge Herbicidal Activity CHEAL ([5]; 63 g ai/ha): 100
- Pre-emerge Herbicidal Activity CHEAL ([5]; 250 g ai/ha): 100
- Pre-emerge Herbicidal Activity AMBEL ([6]; 63 g ai/ha): 80
- Pre-emerge Herbicidal Activity AMBEL ([6]; 250 g ai/ha): 100
- Pre-emerge Herbicidal Activity SETVI ([7]; 63 g ai/ha): 100
- Pre-emerge Herbicidal Activity SETVI ([7]; 250 g ai/ha): 100
- Pre-emerge Herbicidal Activity ECHCG ([8]; 63 g ai/ha): 100
- Pre-emerge Herbicidal Activity ECHCG ([8]; 250 g ai/ha): 100
- Pre-emerge Herbicidal Activity SORHA ([9]; 63 g ai/ha): 100
- Pre-emerge Herbicidal Activity SORHA ([9]; 250 g ai/ha): 100
- Pre-emerge Herbicidal Activity DIGSA ([10]; 63 g ai/ha): 100
- Pre-emerge Herbicidal Activity DIGSA ([10]; 250 g ai/ha): 100
- Pre-emerge Herbicidal Activity CORN (crop damage) ([11]; 63 g ai/ha): 15
- Pre-emerge Herbicidal Activity CORN (crop damage) ([11]; 250 g ai/ha): 85
- Pre-emerge Herbicidal Activity SOY (crop damage) ([12]; 63 g ai/ha): 10
- Pre-emerge Herbicidal Activity SOY (crop damage) ([12]; 250 g ai/ha): 80
- Pre-emerge Herbicidal Activity RICE (crop damage) ([13]; 63 g ai/ha): 60
- Pre-emerge Herbicidal Activity RICE (crop damage) ([13]; 250 g ai/ha): 90
- Post-emerge Herbicidal Activity AMARE ([14]; 63 g ai/ha): 100
- Post-emerge Herbicidal Activity AMARE ([14]; 250 g ai/ha): 100
- Post-emerge Herbicidal Activity ABUTH ([15]; 63 g ai/ha): 100
- Post-emerge Herbicidal Activity ABUTH ([15]; 250 g ai/ha): 100
- Post-emerge Herbicidal Activity CASOB ([16]; 63 g ai/ha): 60
- Post-emerge Herbicidal Activity CASOB ([16]; 250 g ai/ha): 99
- Post-emerge Herbicidal Activity IPOHE ([17]; 63 g ai/ha): 95
- Post-emerge Herbicidal Activity IPOHE ([17]; 250 g ai/ha): 100
- Post-emerge Herbicidal Activity CHEAL ([18]; 63 g ai/ha): 100
- Post-emerge Herbicidal Activity CHEAL ([18]; 250 g ai/ha): 100
- Post-emerge Herbicidal Activity AMBEL ([19]; 63 g ai/ha): 90
- Post-emerge Herbicidal Activity AMBEL ([19]; 250 g ai/ha): 90
- Post-emerge Herbicidal Activity SETVI ([20]; 63 g ai/ha): 50
- Post-emerge Herbicidal Activity SETVI ([20]; 250 g ai/ha): 100
- Post-emerge Herbicidal Activity ECHCG ([21]; 63 g ai/ha): 90
- Post-emerge Herbicidal Activity ECHCG ([21]; 250 g ai/ha): 100
- Post-emerge Herbicidal Activity SORHA ([22]; 63 g ai/ha): 20
- Post-emerge Herbicidal Activity SORHA ([22]; 250 g ai/ha): 30
- Post-emerge Herbicidal Activity DIGSA ([23]; 63 g ai/ha): 0
- Post-emerge Herbicidal Activity DIGSA ([23]; 250 g ai/ha): 20
- Post-emerge Herbicidal Activity CORN (crop damage) ([24]; 63 g ai/ha): 0
- Post-emerge Herbicidal Activity CORN (crop damage) ([24]; 250 g ai/ha): 30
- Post-emerge Herbicidal Activity SOY (crop damage) ([25]; 63 g ai/ha): 50
- Post-emerge Herbicidal Activity SOY (crop damage) ([25]; 250 g ai/ha): 50
- Post-emerge Herbicidal Activity RICE (crop damage) ([26]; 63 g ai/ha): 60
- Post-emerge Herbicidal Activity RICE (crop damage) ([26]; 250 g ai/ha): 65
